Source: article PMC9965125, “New NSAID Conjugates as Potent and Selective COX-2 Inhibitors: Synthesis, Molecular Modeling and Biological Investigation” (Molecules, 2023)

How the values were obtained:
[1] = test system: carrageenan induced paw edema; test: carrageenan-induced rat paw edema; type: in vivo; conditions: for % Potency: % inhibition of edema thickness relative to indomethacin at 3 h
Experimental: Anti-inflammatory activity screening
The anti-inflammatory activity of the tested compounds was determined in-vivo by the acute carrageenan induced paw edema standard method in rats. Adult Wister rats of either sex (pregnant female animals were excluded) weighing 120–150 g were divided into 19 groups of 6 animals each. The tested compounds dissolved in DMSO, at a dose of 10 mg kg-1 (rat body […]
inflammation. The control group was given DMSO only. Paw edema was induced by subcutaneous injection of freshly prepared 1% solution of carrageenan in saline (0.9%, 0.1 ml per rat) into subplantar tissue of the right hind paw of rats. The thickness of the paw was measured (in mm) after successive time intervals (1, 2, 3, 4 and 24 h) and compared with the initial hind paw thickness of each rat for determining the edema thickness. Data were collected, checked, revised and analyzed (SPSS 16). Quantitative variables from normal distribution were expressed as means ± SE “standard error”. The anti-inflammatory activity was expressed as percentage inhibition of edema thickness in treated animals in comparison with the control group according to eqn. (1) […]
% Inhibition of edema= Vc-Vt x 100 … .. (1)
Where, Vc and Vt are the means of edema paw thickness for the control and tested compound treated animal groups, respectively.
The potency of the tested compounds was expressed as % inhibition of edema thickness […]
% Potency = % inhibition of edema for the tested compound treated group x 100 … . (2)

[2] = test system: acetic acid-induced abdominal writhing; test: acetic acid-induced abdominal writhing assay (peripheral analgesic); type: in vivo, mice; conditions: for % Inhibition/Protection / Writing Reflex ± SE: 10 mg/kg indomethacin mol equivalent i.p.; for Potency: % inhibition/protection compared to indomethacin; for Writing Reflex ± SE: number of writhing counted for 30 min
Experimental: Peripheral analgesic testing
Peripheral analgesic activity was measured by the standard acetic acid-induced writhing […]
One hour after intraperitoneally (i,p.) administration of 10 mg kg−1 (mice body weight) […]
distilled/sterile water by the aid of two drops of Tween 80, each mouse was injected with 0.1 ml of 1% acetic acid solution i.p. The control group animals were given sterile/distilled water only with few drops of Tween 80. Starting 5 min after the acetic acid injection, the number of muscular contractions in each mouse was counted for 30 min. A significant reduction in the number of writhing by any test compound as compared to control animals was considered as a positive analgesic response. Percentage protection was calculated according to equ. (3), where n stands for the average number of writhing in the control group and n' is the average number of writhing in the treated group. The % potency was calculated by equ. (4) (Table 2).
% Inhibition/protection = n−n′ x100 … . (3)

hot plate latency = test: hot plate assay (central analgesic); type: in vivo, mice; conditions: for % Protection / Latency Period ± SE: 10 mg/kg indomethacin mol equivalent i.p.; for Latency Period ± SE: cutoff 15 sec; for Potency: at 120 min compared to indomethacin
Experimental: The % potency was calculated by equ. (4) (Table 2). […]
% Potency = % protection of the tested compound x 100 ……. (4) […]
Central analgesic (hot plate) testing
The standard hot plate technique was undertaken by in vivo standard hot plate test [ 1,2]. […]
by placing them on a hot plate maintained at 55 ± 1 °C, 30 min. […]
suspended in sterile/distilled water by the ai d of two drops of Tween 80, and recording the reaction time in seconds for forepaw licking or jumping. The control group animals were given sterile/distilled water only with few drops of Tween 80. The maximum cutoff time was chosen as 15 sec. to prevent tissue damage. Response latencies were measured 30, 60, 90 and 120 min. after the application. The % protection was calculated by equ. ( 5) where, T1, T0 are the latency time mean of the tested compound and control group, respectively (Table 3).

gastric mucosa = conditions: both, albino, mouse, in vivo, po, 10 mg/kg, 3 days
Experimental: The ulcerogenic liability was determined in albino mice obeying the standard method.
Animals of either sex (pregnant females were excluded) weighing 20 –25 g were divided into 8 groups of 6 animals each. The animals fasted 18 h before drug administration.
80 administered orally for three successive days to fasted animals at a dose of 10 mg kg-1 (animal […]
The control group animals were given water only with few drops of Tween 80. The animals were sacrificed by cervical dislocation and the stomach was removed, opened along the greater curvature and rinsed with saline. The gastric mucosa was examined with a magnifying lens (10x) for the presence of lesions and ero sions. The ulcer index was calculated (Table 4) and the degree of ulcerogenic effect was expressed in terms of.
1. The percentage incidence of ulcers divided by 10.
2. Average number of ulcers per stomach.
3. Average severity of ulcers.
The ulcer index is the value that resulted from the sum of the above three values. […]

[3] = 1 h, 10 mg/kg indomethacin mol equivalent i.p.
[4] = 2 h, 10 mg/kg indomethacin mol equivalent i.p.
[5] = 4 h, 10 mg/kg indomethacin mol equivalent i.p.
[6] = 24 h, 10 mg/kg indomethacin mol equivalent i.p.
[7] = 24 h, 10 mg/kg indomethacin mol equivalent i.p., 10 mg/kg

Structure (SMILES)	% Inhibition of Edema ± Standard Error [1, 3]	% Inhibition of Edema ± Standard Error [1, 4]	% Inhibition of Edema ± Standard Error [1, 5]	% Inhibition of Edema ± Standard Error [1, 6]	% Inhibition/Protection [2]	Potency [2]	Writing Reflex ± SE [2]	% Protection (hot plate latency; after 30 min)	Latency Period ± SE (hot plate latency; after 30 min)	% Protection (hot plate latency; after 60 min)	Latency Period ± SE (hot plate latency; after 60 min)	% Protection (hot plate latency; after 90 min)	Latency Period ± SE (hot plate latency; after 90 min)	% Protection (hot plate latency; after 120 min)	Latency Period ± SE (hot plate latency; after 120 min)	Potency (hot plate latency)	% Incidence of Ulcer Divided by 10 (gastric mucosa)	Average Severity of Ulcer (gastric mucosa)	Average of Ulcer Number (gastric mucosa)	Number of Animals with Ulcer (gastric mucosa)	other results
COc1ccc2c(c1)c(CC(=O)OCc1cn(-c3ccccc3OC)nn1)c(C)n2C(=O)c1ccc(Cl)cc1 [Compound 8e, (1-(2-Methoxyphenyl)-1H-1,2,3-triazol-4-yl)methyl 2-(1-(4-chlorobenzoyl)-5-methoxy-2-methyl-1H-indol-3-yl)acetate]	0.00 ± 0.2%	6.5 ± 1.0%	4.2 ± 1.9%	0.00 ± 0.3%	80.8%	112.5%	7.7 ± 1.3	69.2%	11.30 ± 1.1 s	82.0%	13.23 ± 1.6 s	27.5%	11.36 ± 2.5 s	28.9%	11.61 ± 2.2 s	51.2	–	–	–	–	–
COc1ccc(-n2cc(COC(=O)Cc3c(C)n(C(=O)c4ccc(Cl)cc4)c4ccc(OC)cc34)nn2)cc1 [Compound 8f, (1-(4-Methoxyphenyl)-1H-1,2,3-triazol-4-yl)methyl 2-(1-(4-chlorobenzoyl)-5-methoxy-2-methyl-1H-indol-3-yl)acetate]	–	–	–	–	66.8%	93.0%	13.3 ± 1.9	66.3%	11.11 ± 1.6 s	92.4%	13.99 ± 1.9 s	68.4%	15.00 ± 2.5 s	66.5%	15.00 ± 2.6 s	117.7	–	–	–	–	anti-inflammatory efficacy (in words) ([1]; carrageenan-induced rat paw edema): no anti-inflammatory efficacy
COc1ccc2c(c1)c(CC(=O)OCc1cn(-c3ccc([N+](=O)[O-])cc3)nn1)c(C)n2C(=O)c1ccc(Cl)cc1 [Compound 8g, (1-(4-Nitrophenyl)-1H-1,2,3-triazol-4-yl)methyl 2-(1-(4-chlorobenzoyl)-5-methoxy-2-methyl-1H-indol-3-yl)acetate]	20.0 ± 0.7%	–	–	0.00 ± 1.2%	96.3%	134.1%	1.5 ± 0.4	56.6%	10.46 ± 2.4 s	45.4%	10.57 ± 2.7 s	41.2%	12.58 ± 2.0 s	2.7%	9.25 ± 2.3 s	4.8	–	–	–	–	–
CC(C)Cc1ccc(C(C)C(=O)O)cc1 (stereo not drawn) [Ibu, Ibuprofen, reference compound]	44.4 ± 2.5%	43.5 ± 2.9%	21.0 ± 1.1%	–	58.5%	81.5%	16.6 ± 0.7	61.7%	10.80 ± 0.8 s	51.3%	11.00 ± 1.3 s	33.6%	11.90 ± 1.5 s	54.3%	13.90 ± 2.2 s	96.1	3.33	0.67	0.33	2/6	% Inhibition of Edema ± Standard Error ([1]; 3 h, 10 mg/kg indomethacin mol equivalent i.p.): 78.8 ± 0.9%; % Inhibition of Edema ± Standard Error [1, 7]: 11.2 ± 0.6%; % Inhibition of Edema ± Standard Error ([1]; 24 h, 10 mg/kg indomethacin mol equivalent i.p., listed as ibuprofen, 10 mg/kg): 11.2%; Mean Edema Thickness ([1]; 24 h, 10 mg/kg indomethacin mol equivalent i.p., ± standard error): 0.817 ± 0.07 mm; % Potency [1]: 97.2%
COc1ccc2c(c1)c(CC(=O)O)c(C)n2C(=O)c1ccc(Cl)cc1 [Indo, Indomethacin, reference compound]	–	–	–	–	71.8%	100.0%	11.3 ± 1.6	87.1%	12.50 ± 2.0 s	80.9%	13.15 ± 1.6 s	57.9%	14.07 ± 1.2 s	56.5%	14.10 ± 1.9 s	100	10	1.67	2	6/6	% Inhibition of Edema ± Standard Error [1, 7]: 12.0 ± 2.1%; % Inhibition of Edema ± Standard Error ([1]; 24 h, 10 mg/kg indomethacin mol equivalent i.p., listed as indomethacin, 10 mg/kg): 12.0%; % Potency [1]: 100%; Potency ([2]; listed as indomethacin): 100%
